From patent EP1099438A2, “Use of APO B secretion/MTP inhibitors” (Pfizer Products Inc., priority 1999, dated 2001) come the findings set out here.

This assay concerns food intake. Briefly: food intake reduction determination protocol in dogs. The format is in vivo. Conditions: male beagles, oral gavage, dosing solution 0.5 mg/mL at 1 mL per kg body weight, single dose on Days 0 and 5-12; 24 hour food consumption versus amount consumed prior to Day 0. The source says:
Healthy, young adult (1-2 years of age) male beagles (Marshall Farms, North Rose, New York, NY 14516) weighing 11.45 - 12.45 kg at the start of the treatment period were employed as test subjects. The animals were housed individually in standard caging meeting or exceeding the USDA regulations (U.S. Department of Agriculture, Animal Welfare, Final Rules. 9 C.F.R. Parts 1-3, 1995).
The test compound was provided as a water-soluble powder. The dosing solution, administered by oral gavage, was provided employing a 0.025 M citrate buffer (approx. pH = 3) prepared using anhydrous citric acid (0.4 g/mL) and anhydrous sodium citrate (0.1 g/mL) as the test vehicle. The dosing solution was prepared at 0.5 mg/mL activity so that 1 mL was delivered per kg body weight. Following a fourteen day acclimation period (designated as Days -14 to -1), during which time the test animals were evaluated for certain criteria including determination of body weight and physical examinations, a sixteen day evaluation study was effected.
The study consisted of one group of animals containing five dogs. On Days 0 and 5-12, each dog received the dosing solution administered as a single dose at Time 0 on each dosing day via a feeding tube. […]
Reduction in food intake was quantitated by weighing individual food bowls each day prior to feeding and at the end of each 24 hour consumption period. […]

As for `CC(=O)NCCN1CCc2cc(NC(=O)c3ccccc3-c3ccc(C(F)(F)F)cc3)ccc2C1` [4'-trifluoromethyl-biphenyl-2-carboxylic acid-[2-(2-acetylaminoethyl)-1,2,3,4-tetrahydroisoquinolin-6-yl amide], the “reduced food intake in dogs” value is recorded as 58%.
Then `CCCCN1CCc2cc(NC(=O)c3ccccc3-c3ccc(C(F)(F)F)cc3)ccc2C1` [4'-trifluoromethyl-biphenyl-2-carboxylic acid-(2-butyl-1,2,3,4-tetrahydroisoquinolin-6-yl)-amide], with 30%.
